Test results taken from patent publication US10588952B2, “Conjugate vaccine using trimming function of ERAP1” (SUMITOMO DAINIPPON PHARMA CO., LTD., priority 2013, dated 2020).
Converted amounts (≈) assume the structure as drawn. Bridge positions count the residues as written; N and C are the ends. Peptide text beside a SMILES is read from it. I, II: the chains in the order shown.

Experiments:
[1] = system: HLA-A0201 transgenic mouse; experiment: In vivo CTL induction ability, IFNγ ELISPOT, Cys-extended peptides (Experimental Example 3); details: intradermal, 2 sites, 50 μg/site with IFA; splenocytes one week later re-stimulated with Cys non-extended or Cys-extended peptide 10 μg/mL
Description: The CTL induction ability of each peptide extended by cysteine (Cys) (Cys-extended peptide) shown in Table 23 was evaluated by in vivo CTL induction test using an HLA-A0201 transgenic mouse.
HLA-A0201 transgenic mouse (C57BL/6CrHLA-A2.1DR1) is a mouse which is defective in mouse MHC, and expresses a chimera HLA of human MHC HLA-A0201 and mouse MHC H-2D^b, and HLA-DRB1*0101.
The emulsified peptide was intradermally administered to 2 sites at the base of tail of the mouse at 50 μg/site. One week later, the mouse was euthanized with CO2 gas, the spleen was isolated, and splenocytes were prepared. IFNγ ELISPOT assay kit was used for the measurement of IFNγ production. On the previous day of splenocyte preparation, an ELISPOT plate was treated with an anti-mouse IFNγ antibody, and blocked with RPMI1640 medium containing 10% FBS the next day. The prepared HLA-A0201 transgenic mouse-derived splenocytes were plated at 2.5×10^5 cells/well on the blocked ELISPOT plate. […] These splenocytes were cultivated for 20 hr at 37° C., 5% CO2, whereby peptide re-stimulation in vitro was performed. Thereafter, the supernatant was removed, and the ELISPOT plate was allowed to develop color according to the attached protocol. The number of spots that developed color was measured by KS ELISPOT.

ERAP1 [2] = molecular target: T1, ERAP1 (Homo sapiens, UniProt Q9NZ08); experiment: Time-course changes of trimming of N-terminal amino acid by ERAP1 (Experimental Example 2); type: biochemical; details: peptide obtained by trimming (SEQ ID NO: 53, 43 or 19), ERAP1 solution 0.5 mg/ml, room temperature
T1 sequence (Q9NZ08 whole entry): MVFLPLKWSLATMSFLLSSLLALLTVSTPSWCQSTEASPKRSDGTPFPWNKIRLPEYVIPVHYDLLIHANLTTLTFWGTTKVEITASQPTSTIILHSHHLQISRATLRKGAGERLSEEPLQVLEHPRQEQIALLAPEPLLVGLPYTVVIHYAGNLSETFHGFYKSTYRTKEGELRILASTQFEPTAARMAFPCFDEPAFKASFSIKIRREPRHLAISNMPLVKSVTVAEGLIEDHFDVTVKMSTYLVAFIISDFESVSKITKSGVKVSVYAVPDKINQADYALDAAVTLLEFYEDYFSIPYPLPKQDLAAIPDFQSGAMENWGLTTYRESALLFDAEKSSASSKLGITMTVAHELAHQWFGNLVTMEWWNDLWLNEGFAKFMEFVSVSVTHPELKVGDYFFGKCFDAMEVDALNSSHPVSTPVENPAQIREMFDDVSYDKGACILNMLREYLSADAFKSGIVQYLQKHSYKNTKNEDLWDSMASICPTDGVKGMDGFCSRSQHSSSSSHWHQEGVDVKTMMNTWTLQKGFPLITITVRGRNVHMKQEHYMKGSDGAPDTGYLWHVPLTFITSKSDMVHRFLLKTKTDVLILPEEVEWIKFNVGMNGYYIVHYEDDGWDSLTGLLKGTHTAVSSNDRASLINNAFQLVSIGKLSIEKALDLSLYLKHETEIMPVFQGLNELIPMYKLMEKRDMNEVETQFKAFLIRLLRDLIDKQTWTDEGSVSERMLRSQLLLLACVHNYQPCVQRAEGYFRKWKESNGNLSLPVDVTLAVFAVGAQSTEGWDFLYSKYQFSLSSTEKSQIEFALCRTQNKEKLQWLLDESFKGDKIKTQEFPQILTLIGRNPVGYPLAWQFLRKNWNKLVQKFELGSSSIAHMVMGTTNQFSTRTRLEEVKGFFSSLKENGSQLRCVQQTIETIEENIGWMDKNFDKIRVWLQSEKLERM
Description: 20 μl of ERAP1 solution (0.5 mg/ml) in Tris.HCl buffer was added to 172 μl of Tris.HCl buffer. 10 mM peptide solution in DMSO (8.0 μl) was added to the aforementioned ERAP1 solution, and the mixture was blended well and stood at room temperature. […]
pump: UFLC manufactured by Shimadzu column: Shim-pack XR-ODS 3.0 mmi.d.×75 mm solution: 0.05% TFA H2O(A)-0.05% TFA CH3CN(B) […]
detection wavelength: λ=220 nm gradient: Concentration of SOLUTION B was raised from 1.0% 70% from 0.0 min to 5.0 min […]
The peptide to be obtained by the trimming of the N-terminal amino acid(s) by ERAP1 is, […]

[3] = system: HLA-A0201 transgenic mouse; experiment: In vivo CTL induction ability, IFNγ ELISPOT, formula (5) (Experimental Example 14); details: 250 μg/site with IFA, 17 hr
Description: The compound represented by the formula (5) synthesized in Example 110 was evaluated for the CTL induction ability by an in vivo CTL induction test using HLA-A0201 transgenic mouse. The compound represented by the formula (5): […]
Specifically, the compound represented by the formula (5) was dissolved in dimethyl sulfoxide (DMSO) at 80 mg/mL, further diluted with water for injection to 10 mg/mL, and emulsified by mixing with an equal amount of incomplete Freund's adjuvant (IFA). The emulsified compound was intradermally administered to 2 sites at the base of tail of the mouse at 250 μg/site. One week later, the mouse was euthanized with CO2 gas, the spleen was isolated, and splenocytes were prepared. IFNγ ELISPOT assay kit was used for the measurement of IFNγ production. On the previous day of splenocyte preparation, an ELISPOT plate was treated with an anti-mouse IFNγ antibody, and blocked with RPMI1640 medium containing 10% FBS the next day. The prepared HLA-A0201 transgenic mouse-derived splenocytes were plated at 0.25×10^6 cells/well on the blocked ELISPOT plate. […] After the culture, the supernatant was removed, and the ELISPOT plate was allowed to develop color according to the attached protocol. The number of spots that developed color was measured by ImmunoSpot Analyzer (manufactured by C.T.L.).

ERAP1 [4] = molecular target: T1, ERAP1; experiment: Test of trimming of N-terminal amino acid by ERAP1 (Experimental Example 11, Examples 50, 56, 64, 67); type: biochemical; details: Proteinase-3 169-177 peptide obtained by ERAP1 trimming; from HPLC AUC
Description: The peptides synthesized in Examples 50, 56, 64 and 67 were evaluated for N-terminal amino acid trimming efficiency using ERAP1. 50 μl of ERAP1 solution (10 μg/ml) in pH 8.0, 20 mM Tris.HCl-100 mM NaCl buffer (Tris.HCl buffer) was added to 142 μl of Tris.HCl buffer. 10 mM peptide solution in DMSO (2.0 μl) and 6.0 μL of DMSO were added to the aforementioned ERAP1 solution, and the mixture was blended well and stood at 30° C. […] The peptide to be obtained by trimming was chemically synthesized separately, and analyzed under similar conditions in the absence of the enzyme. […]
pump: UFLC manufactured by Shimadzu […]
solution: 0.1% TFA H2O(A)-0.1% TFA CH3CN(B) […]
detection wavelength: λ=220 nm gradient: concentration of SOLUTION B was raised from 10% to 50% from 0.0 min to 8.5 min

[5] = system: HLA-A0201 transgenic mouse; experiment: In vivo CTL induction ability, IFNγ ELISPOT, formula (11) (Experimental Example 13); details: 250 μg/site with IFA, 17 hr
Description: The compound represented by the formula (11) synthesized in Example 109 was evaluated for the CTL induction ability by an in vivo CTL induction test using an HLA-A0201 transgenic mouse. The compound represented by the formula (11): […]
To evaluate whether CTLs to each of the peptides (SEQ ID NOs: 19 and 88) endogenously presented by cancer cells was induced, the compound represented by the formula (11) was administered to the HLA-A0201 transgenic mouse. That is, it was determined whether IFNγ production was observed by re-stimulation, with the peptide (SEQ ID NO: 19 or 88), of the splenocyte derived from the above-mentioned mouse administered with the compound represented by the formula (11).
Specifically, the compound represented by the formula (11) was dissolved in dimethyl sulfoxide (DMSO) at 80 mg/mL, further diluted with water for injection to 10 mg/mL, and emulsified by mixing with an equal amount of incomplete Freund's adjuvant (IFA). The emulsified compound was intradermally administered to 2 sites at the base of tail of the mouse at 250 μg/site. One week later, the mouse was euthanized with CO2 gas, the spleen was isolated, and splenocytes were prepared. IFNγ ELISPOT assay kit was used for the measurement of IFNγ production. […] The number of spots that developed color was measured by ImmunoSpot Analyzer (manufactured by C.T.L.). […]

[6] = splenocytes pulsed with SEQ ID NO: 19, 10 μg/mL

Description for physchem: To prepare a test solution, about 1 mg of a test product was measured and the isotonic buffer (0.5 mL) was added thereto. The prepared solution was shaken at room temperature for 90 min (shaking conditions: RECIPRO SHAKER SR-1N manufactured by TAITEC, Speed=8), centrifuged (15000 rpm, 5 min, room temperature), and the supernatant after centrifugation was used as a test solution.
About 1 mg of the test product was accurately measured, dissolved in 0.1% TFA water/acetonitrile=1/1, made the total amount 10 mL, and this was used as a standard solution of the test product.
The standard solution of the test product and the test solution are analyzed by HPLC (under the analysis conditions described in Table 34), and the solubility of the test product is calculated from the ratio of peak area compared to the standard solution.
column: Chemcopack Quicksorb (4.6 mmφ×150 mm, 5 μm)
manufactured by Chemco Scientific Co., Ltd.
mobile phase: SOLUTION A; 0.1% TFA water, SOLUTION B;
0.1% TFA acetonitrile solution
column temperature: room temperature
detection wavelength: UV 254 nm, 230 nm (2 wavelength detection)
sample injection volume: 10

H-CVLQELNVTV-OH [Example 21]
in vivo CTL induction ability (IFNγ ELISPOT) [1]: has an in vivo CTL induction ability | formation rate(%) 1 hr later (ERAP1 [2]): 83.4% | formation rate(%) 2 hr later (ERAP1 [2]): 85.6% | formation rate(%) 4 hr later (ERAP1 [2]): 78.8% | formation rate(%) 8 hr later (ERAP1 [2]): 83.9%

CSCC[C@H](NC(=O)CNC(=O)[C@H](CC(=O)O)NC(=O)[C@H](Cc1ccc(O)cc1)NC(=O)[C@H](CC(C)C)NC(=O)CNC(=O)[C@@H](N)CSSC[C@H](N)C(=O)N[C@H](C(=O)N[C@@H](CC(C)C)C(=O)N[C@@H](CCC(N)=O)C(=O)N[C@@H](CCC(=O)O)C(=O)N[C@@H](CC(C)C)C(=O)N[C@@H](CC(N)=O)C(=O)N[C@H](C(=O)N[C@H](C(=O)N[C@H](C(=O)O)C(C)C)[C@@H](C)O)C(C)C)C(C)C)C(=O)N[C@@H](CCC(=O)O)C(=O)N[C@@H](Cc1c[nH]cn1)C(=O)N[C@@H](CC(C)C)C(=O)O [Example 110] (I: H-CGLYDGMEHL-OH / II: H-CVLQELNVTV-OH; disulfide I:1-II:1)
induction of CTLs specific to the peptide shown by SEQ ID NO: 19 [3, 6]: can induce CTLs | induction of CTLs specific to the peptide shown by SEQ ID NO: 43 ([3]; splenocytes pulsed with SEQ ID NO: 43, 10 μg/mL): can induce CTLs | solubility thermodynamic at 90 min (physchem; pH 6): 511 µg/mL (≈ 227 µM) | solubility thermodynamic at 90 min (physchem; pH 7.4): > 1000 µg/mL

H-YCVLQELNVTV-OH [Example 67]
formation rate of VLQELNVTV (SEQ ID NO: 43) (ERAP1 [4]): 0.7%

H-CGLYDGMEHL-OH [Example 25]
in vivo CTL induction ability (IFNγ ELISPOT) [1]: has an in vivo CTL induction ability | formation rate(%) 1 hr later (ERAP1 [2]): 95.1% | formation rate(%) 2 hr later (ERAP1 [2]): 106% | formation rate(%) 4 hr later (ERAP1 [2]): 100% | formation rate(%) 8 hr later (ERAP1 [2]): 101%

H-GCVLQELNVTV-OH [Example 56]
formation rate of VLQELNVTV (SEQ ID NO: 43) (ERAP1 [4]): 1.1%

CC[C@H](C)[C@H](NC(=O)[C@H](Cc1c[nH]c2ccccc12)NC(=O)[C@H](CCSC)NC(=O)[C@H](CC(C)C)NC(=O)[C@H](CC(C)C)NC(=O)[C@@H](N)CO)C(=O)N[C@H](C(=O)N[C@@H](CCC(N)=O)C(=O)N[C@@H](CSSC[C@H](N)C(=O)NCC(=O)N[C@@H](CC(C)C)C(=O)N[C@@H](Cc1ccc(O)cc1)C(=O)N[C@@H](CC(=O)O)C(=O)NCC(=O)N[C@@H](CCSC)C(=O)N[C@@H](CCC(=O)O)C(=O)N[C@@H](Cc1c[nH]cn1)C(=O)N[C@@H](CC(C)C)C(=O)O)C(=O)O)[C@@H](C)O [Example 109]
solubility at 90 min (physchem; pH 6): 79 µg/mL (≈ 35.4 µM) | solubility at 90 min (physchem; pH 7.4): 700 µg/mL (≈ 314 µM) | induction of CTLs specific to the peptide shown by SEQ ID NO: 19 [5, 6]: can induce CTLs | induction of CTLs specific to the peptide shown by SEQ ID NO: 88 ([5]; splenocytes pulsed with SEQ ID NO: 88, 10 μg/mL): can induce CTLs

H-ACVLQELNVTV-OH [Example 50]
formation rate of VLQELNVTV (SEQ ID NO: 43) (ERAP1 [4]): 1.8%
